From ChEMBL document CHEMBL4422646, “Synthesis and biological evaluation of 3-amino-, 3-alkoxy- and 3-aryloxy-6-(hetero)arylpyridazines as potent antitumor agents” (Bioorg Med Chem Lett, 2019) come the findings set out here.

Series [1] relates to MDA-MB-468. The experiment in a line: Anticlonogenic activity against human MDA-MB-468 cells harboring luciferase reporter gene after 2 weeks by Giemsa staining-based assay. It is filed as functional, cell-based. The settings on record: MDA-MB-468, 336 h. (In a reporter assay the amount or activity of a reporter protein is the signal.)
Series [2] in a line: Toxicity in zebrafish embryos assessed as effect on embryo mobility at 0.8 uM after 72 hrs. Also on record: species or system Danio rerio. The following applies: in vivo.
Series [3] concerns Huh-7. Briefly: Antiproliferative activity against human HuH7 cells at 0.1 to 25 uM after 48 hrs by Hoechst 33342 staining-based assay relative to control. It is filed as functional.
Series [4] concerns Huh-7. Briefly: Antiproliferative activity against human HuH7 cells after 48 hrs by Hoechst 33342 staining-based assay. The format is functional, cell-based. The settings on record: Huh-7, 48 h.
Series [5] deals with PC-3. The experiment in a line: Antiproliferative activity against human PC3 cells after 48 hrs by Hoechst 33342 staining-based assay. It is filed as functional, cell-based. The following applies: PC-3, 48 h.
Series [6] concerns NCI-H727. Briefly: Antiproliferative activity against human NCI-H727 cells at 0.1 to 25 uM after 48 hrs by Hoechst 33342 staining-based assay relative to control. The format is functional.
In series [7] the test system is HepaRG. Briefly: Hepatotoxicity in human HepaRG cells at 2.5 uM after 48 hrs. The format is toxicity, cell-based.
A short description of series [8]: Toxicity in zebrafish embryos assessed as effect on embryo development at 0.8 uM after 72 hrs. More on the design: species or system Danio rerio. The settings on record: in vivo.
In series [9] the test system is PC-3. The experiment in a line: Antiproliferative activity against human PC3 cells at 0.1 to 25 uM after 48 hrs by Hoechst 33342 staining-based assay relative to control. The format is functional.
A short description of series [10]: Toxicity in zebrafish embryos assessed as alive embryo at 0.8 uM after 72 hrs. Also on record: species or system Danio rerio. The following applies: in vivo.
In series [11] the test system is MDA-MB-231. The experiment in a line: Antiproliferative activity against human MDA-MB-231 cells at 0.1 to 25 uM after 48 hrs by Hoechst 33342 staining-based assay relative to control. The format is functional.
For series [12], the system named is Caco-2. The experiment in a line: Antiproliferative activity against human Caco2 cells after 48 hrs by Hoechst 33342 staining-based assay. It is filed as functional, cell-based. The settings on record: Caco-2, 48 h.
Series [13] has as its system MDA-MB-231. Briefly: Antiproliferative activity against human MDA-MB-231 cells after 48 hrs by Hoechst 33342 staining-based assay. It is filed as functional, cell-based. The settings on record: MDA-MB-231, 48 h.
The test system of series [14] is NCI-H727. Briefly: Antiproliferative activity against human NCI-H727 cells after 48 hrs by Hoechst 33342 staining-based assay. It is filed as functional, cell-based. The settings on record: NCI-H727, 48 h.
Series [15] relates to Fibroblast. Briefly: Antiproliferative activity against human fibroblast cells at 0.1 to 25 uM after 48 hrs by Hoechst 33342 staining-based assay relative to control. The format is cell-based.
The subject of series [16] is HaCaT. The experiment in a line: Antiproliferative activity against human HaCaT cells after 48 hrs by Hoechst 33342 staining-based assay. The format is cell-based.
The test system of series [17] is HCT-116. Briefly: Antiproliferative activity against human HCT116 cells at 0.1 to 25 uM after 48 hrs by Hoechst 33342 staining-based assay relative to control. The format is functional.
In series [18] the target is RAC-alpha serine/threonine-protein kinase (Homo sapiens) (UniProt P31749). Briefly: Inhibition of EGF-stimulated Akt phosphorylation in human MDA-MB-468-Luc cells at 10^-5 M pre-incubated for 1 hr before EGF stimulation for 15 mins by Western blot analysis relative to control. The format is cell-based.
Chain of RAC-alpha serine/threonine-protein kinase (Homo sapiens) (P31749 whole entry): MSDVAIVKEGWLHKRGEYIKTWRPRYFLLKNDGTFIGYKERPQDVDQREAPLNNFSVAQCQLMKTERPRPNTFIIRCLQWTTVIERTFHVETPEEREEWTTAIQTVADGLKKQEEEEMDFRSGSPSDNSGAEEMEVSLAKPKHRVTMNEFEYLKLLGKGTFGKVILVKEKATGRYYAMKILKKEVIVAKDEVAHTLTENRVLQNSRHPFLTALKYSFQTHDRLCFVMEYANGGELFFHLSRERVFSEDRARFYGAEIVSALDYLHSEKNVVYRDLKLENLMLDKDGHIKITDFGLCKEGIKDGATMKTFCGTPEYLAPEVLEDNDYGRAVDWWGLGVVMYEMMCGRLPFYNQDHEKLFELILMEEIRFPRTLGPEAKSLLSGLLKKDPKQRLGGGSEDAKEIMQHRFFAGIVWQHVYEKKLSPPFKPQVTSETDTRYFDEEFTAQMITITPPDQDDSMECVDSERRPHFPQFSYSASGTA
The test system of series [19] is HCT-116. The experiment in a line: Antiproliferative activity against human HCT116 cells after 48 hrs by Hoechst 33342 staining-based assay. The format is functional, cell-based. The settings on record: HCT-116, 48 h.
Series [20] deals with Fibroblast. Briefly: Antiproliferative activity against human fibroblast cells after 48 hrs by Hoechst 33342 staining-based assay. The format is cell-based.
Series [21] is described as follows: Toxicity in zebrafish embryos at 2.5 uM after 72 hrs. The following applies: in vivo. Also on record: species or system Danio rerio.
The target in series [22] is Mitogen-activated protein kinase; ERK1/ERK2 (Homo sapiens) (UniProt P27361+P28482). Briefly: Inhibition of EGF-stimulated p44/42 phosphorylation in human MDA-MB-468-Luc cells at 10^-5 M pre-incubated for 1 hr before EGF stimulation for 15 mins by Western blot analysis relative to control. It is filed as cell-based. Background: In western blotting, separated proteins are transferred to a membrane and probed.
Chain of Mitogen-activated protein kinase; ERK1/ERK2 (Homo sapiens) (P27361 whole entry, looked up): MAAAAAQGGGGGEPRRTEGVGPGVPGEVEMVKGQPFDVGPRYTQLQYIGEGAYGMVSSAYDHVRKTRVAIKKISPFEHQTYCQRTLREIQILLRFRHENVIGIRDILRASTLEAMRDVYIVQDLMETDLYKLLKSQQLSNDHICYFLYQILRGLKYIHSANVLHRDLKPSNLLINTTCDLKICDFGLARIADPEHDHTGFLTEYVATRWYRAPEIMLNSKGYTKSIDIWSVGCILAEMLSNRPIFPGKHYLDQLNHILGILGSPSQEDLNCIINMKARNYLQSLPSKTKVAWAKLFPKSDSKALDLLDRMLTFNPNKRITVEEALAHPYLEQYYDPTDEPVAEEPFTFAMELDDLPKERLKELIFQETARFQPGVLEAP
Chain of Mitogen-activated protein kinase; ERK1/ERK2 (Homo sapiens) (P28482 whole entry, looked up): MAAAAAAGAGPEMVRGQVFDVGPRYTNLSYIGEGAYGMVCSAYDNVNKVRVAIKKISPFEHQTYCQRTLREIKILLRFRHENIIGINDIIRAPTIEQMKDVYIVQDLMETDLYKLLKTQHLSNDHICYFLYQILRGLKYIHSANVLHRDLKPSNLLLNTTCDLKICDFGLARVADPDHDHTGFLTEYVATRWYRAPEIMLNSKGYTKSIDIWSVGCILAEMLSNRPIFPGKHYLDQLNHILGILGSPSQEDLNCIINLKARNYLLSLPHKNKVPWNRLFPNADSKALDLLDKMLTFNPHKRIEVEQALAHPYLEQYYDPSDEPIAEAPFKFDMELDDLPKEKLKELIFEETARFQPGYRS

In series [23] the test system is HaCaT. Briefly: Antiproliferative activity against human HaCaT cells at 0.1 to 25 uM after 48 hrs by Hoechst 33342 staining-based assay relative to control. It is filed as cell-based.
The nature of series [24]: Toxicity in zebrafish embryos assessed as reduction in eye size at 0.8 uM after 72 hrs. The following applies: in vivo. More on the design: species or system Danio rerio.
Series [25] in a line: Toxicity in zebrafish embryos assessed as reduction in eye size at 2.5 uM after 72 hrs. More on the design: species or system Danio rerio. The following applies: in vivo.

Activity calls are given as the source filed them. No cut-off for these calls is given here.

Consider `CCOC(=O)c1ccc(-c2ccc(N(CC)CC)nn2)cc1`, for which the IC50 (commonly the point on the concentration scale where inhibition reaches its midpoint) in series [1] worked out at 120 nM; in [4] it was 9000 nM; in series [5], 1000 nM; in series [12] it was 4000 nM; in series [13], 1500 nM; in series [14], 1500 nM. Besides, the IC50 was 500 nM in [16], 500 nM in series [19] and 3000 nM in series [20]. Also, the Activity result in series [2] is “Non-Toxic”; in series [3], 60%; in [6], 60%; in series [7] it was “Non-Toxic”; in series [8] it was “Non-Toxic”; in [9], 80%. For the same compound, the Activity result is given as “Non-Toxic” in series [10]; 70% in [11]; 40% in series [15]; 90% in [17]; “Toxic” in [21]; 80% in series [23]. Moreover, the inhibition (commonly how much of the control response was suppressed) in [18] is “Active”. Moreover, the inhibition in series [22] is 70%.

For `CCN(CC)c1ccc(-c2ccc(C(=O)OC)cc2)nn1`, the IC50 in series [1] turned out to be 15 nM; in series [4], 90 nM; in [5] it was 90 nM; in series [12] it was 250 nM; in series [13], 140 nM; in series [14], 90 nM. For the same compound, the results for the IC50 in series [16], in series [19] and in series [20] were 80 nM, 60 nM and 100 nM, respectively. The Activity entry in series [2] is given as “Non-Toxic”; in [3], 60%; in series [6], 60%; in series [7], “Non-Toxic”; in series [8], “Non-Toxic”; in series [9], 72%. Besides, the Activity result was “Non-Toxic” in series [10]; 60% in series [11]; “Non-Toxic” in [24]; “Toxic” in [25]; 40% in series [15]; 100% in series [17]. Moreover, the Activity result in series [21] is reported as “Toxic”; in series [23], 85%. Moreover, the results for the inhibition in [18] and in [22] were greater than 70% and 70%, respectively.
